# Measurements from the supplement of paper PMC10307832.
# Legend:
# GSK-J4 + Vorinostat = compound: CCOC(=O)CCNc1cc(N2CCc3ccccc3CC2)nc(-c2ccccn2)n1 [GSK-J4] + O=C(CCCCCCC(=O)Nc1ccccc1)NO [Vorinostat] (partner 1 µM); assay: relative viability (nuclei count vs DMSO), 5 days (fraction); higher = more cells survive
# Procedure, shortened: (§1)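 Lung cancer cell lines were pin-tool dosed in 1536-well plates on the day after seeding, with either a lone drug or a fixed anchor-drug dose plus five library-drug doses (not always all listed) in √10 steps. Nuclei were counted on 4× images after 5 days. Relative viability is the ratio of treated-well to vehicle-well nuclei counts, with each value a median of duplicate plates.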
# GSK-J4 + AZD7762 = compound: CCOC(=O)CCNc1cc(N2CCc3ccccc3CC2)nc(-c2ccccn2)n1 [GSK-J4] + NC(=O)Nc1cc(-c2cccc(F)c2)sc1C(=O)N[C@H]1CCCNC1 [AZD7762] (partner 0.2 µM); assay: as above
# Procedure, shortened: as §1
Cell Line,relative viability (GSK-J4 + Vorinostat; first compound 0.5 µM),relative viability (GSK-J4 + Vorinostat; first compound 1.581 µM),relative viability (GSK-J4 + Vorinostat; first compound 15.81 µM),relative viability (GSK-J4 + Vorinostat; first compound 50 µM),relative viability (GSK-J4 + AZD7762; first compound 0.5 µM),relative viability (GSK-J4 + AZD7762; first compound 1.581 µM),relative viability (GSK-J4 + AZD7762; first compound 15.81 µM),relative viability (GSK-J4 + AZD7762; first compound 50 µM),relative viability (GSK-J4 + Vorinostat; first compound 5 µM),relative viability (GSK-J4 + AZD7762; first compound 5 µM)
NCI-H650,0.358,0.342,0.319,0.266,0.938,1.04,0.782,0.696,,
NCI-H661,0.833,0.687,0.728,0.608,,,,,0.821,
NCI-H727,1.13,0.991,1.03,0.758,0.425,0.54,0.585,0.341,1.45,0.728
NCI-H838,0.721,0.717,0.695,0.57,0.971,0.681,0.874,0.789,0.401,0.76
NCI-H1355,0.654,0.588,0.478,0.469,0.731,0.693,0.532,0.584,0.51,0.516
NCI-H1395,1.11,0.813,0.594,0.62,0.403,0.415,0.351,0.413,0.625,0.409
NCI-H1437,0.827,0.608,0.706,0.305,1.1,0.898,1.07,0.595,0.715,1.02
NCI-H1648,0.527,,,0.415,0.676,,,0.843,0.868,0.925
NCI-H1650,0.567,0.501,0.48,0.286,,,,,0.663,
NCI-H1651,0.607,0.537,0.448,0.464,0.4,0.468,0.406,0.38,0.558,0.466
NCI-H1666,0.956,0.931,1.01,0.737,0.889,0.807,0.768,0.573,0.97,0.688
NCI-H1703,,,,,0.117,,0.119,0.119,,0.113
NCI-H1734,0.749,0.788,0.645,0.5,0.513,0.767,0.513,0.423,0.609,0.333
NCI-H1755,0.675,0.638,0.577,0.536,0.42,0.622,0.4,0.387,0.694,0.294
NCI-H1792,,,,,0.771,0.534,0.674,0.457,,0.325
NCI-H1793,0.942,0.586,0.358,0.284,0.595,0.324,0.151,0.156,0.663,0.215
NCI-H1915,0.452,0.481,0.417,0.483,0.614,0.728,0.592,0.722,,
NCI-H1944,0.566,0.477,0.419,0.427,0.492,0.64,0.414,0.427,,
NCI-H1975,0.662,0.689,0.632,0.71,0.783,0.633,0.63,0.858,0.637,
NCI-H1993,1.15,0.708,0.601,0.409,0.805,0.683,0.604,0.435,0.804,1.04

Cell Line,relative viability (GSK-J4 + Vorinostat; first compound 0.5 µM),relative viability (GSK-J4 + Vorinostat; first compound 1.581 µM),relative viability (GSK-J4 + Vorinostat; first compound 15.81 µM),relative viability (GSK-J4 + Vorinostat; first compound 50 µM),relative viability (GSK-J4 + AZD7762; first compound 0.5 µM),relative viability (GSK-J4 + AZD7762; first compound 1.581 µM),relative viability (GSK-J4 + AZD7762; first compound 15.81 µM),relative viability (GSK-J4 + AZD7762; first compound 50 µM),relative viability (GSK-J4 + Vorinostat; first compound 5 µM),relative viability (GSK-J4 + AZD7762; first compound 5 µM)
NCI-H2009,0.731,0.622,0.682,0.259,,,,,0.56,
NCI-H2023,0.59,0.497,0.514,0.283,,,,,0.545,
NCI-H2085,0.767,0.731,0.634,0.728,0.926,0.896,0.792,0.936,0.697,0.888
NCI-H2087,0.638,0.68,0.842,0.811,1.09,1.25,1.23,0.8,0.544,1.05
NCI-H2126,0.762,0.659,0.572,0.567,1,0.928,0.891,0.89,0.872,1.05
NCI-H2170,0.813,0.677,0.638,0.761,0.776,0.839,0.667,0.836,0.803,0.774
NCI-H2228,0.642,0.873,0.617,0.797,,,,,0.823,
NCI-H2342,0.81,0.842,1.09,1.02,0.624,0.525,0.557,0.362,0.887,0.531
NCI-H2347,0.605,0.558,0.518,0.538,0.779,0.783,0.724,0.591,0.586,0.781
NCI-H2405,0.973,0.925,0.923,0.974,0.774,0.954,0.677,0.738,,
NCI-H3122,0.984,0.876,0.905,0.986,1.01,0.917,0.93,1,0.966,0.916
PC-3 [JPC-3],1.05,0.723,0.624,0.725,1.04,0.55,0.748,0.555,0.671,0.932
PC-14,0.721,0.66,0.63,0.509,0.503,0.316,0.315,0.343,0.565,
RERF-LC-KJ,0.679,0.534,0.613,0.485,0.916,0.825,0.821,0.672,0.576,0.812
SK-LU-1,0.751,0.679,0.58,0.578,,,,,0.626,
SK-MES-1,0.986,0.968,1.04,0.524,,,,,1.04,
SW 900,0.607,0.414,0.408,0.483,0.68,0.676,0.57,0.55,0.79,0.597
SW 1573,0.817,0.396,0.845,0.276,,,,,0.406,
UMC-11,0.418,0.364,0.437,0.187,,,,,0.492,
